For four molecules, IC50 results are on record in patent US20120309776A1, “PYRROLO[2,3-D]PYRIMIDINE UREA COMPOUNDS AS JAK INHIBITORS” (Pfitzer Inc., priority 2010, published 2012).

This test has as its system T-cell proliferation in canine whole blood (ConA and canine IL-2 stimulated). The experiment in a line: Canine in vitro T-cell Proliferation Assay. The settings on record: Canis lupus familiaris, ConA 1 μg/ml + canine IL-2 50 ng/ml, tritiated thymidine incorporation, average assay results. The format is cell-based, beagle dogs. The method, then:
Introduction: T-cell activation plays a key role in a variety of inflammatory and autoimmune disorders as well as asthma, allergies and pruritus. Since T-cell activation can, in part, can be triggered by cytokines that signal through the JAK-STAT pathway, a JAK inhibitor could be effective against such diseases involving aberrant T-cell activation. […] Methods: Canine whole blood is collected in heparin sulfate tubes from beagle dogs. Whole blood (20 μL) is plated in 96-well plates (Costar) with 180 μL of DMEM complete medium (Dublecco's Modified Eagle Medium; 10% heat inactivated fetal bovine serum; 100 u/ml penicillin; 100 ug/mL streptomycin, from Gibco) containing vehicle control or test compound (0.001 to 10 μM), concanavalin A (ConA; 1 μg/ml), and canine interleukin-2 (IL-2; 50 ng/ml). Wells containing whole blood, medium with vehicle control and no ConA or IL-2 are used as background (BKG) controls. Plates are incubated at 37° C. for 48 hrs. Tritiated thymidine, 0.4 μCi/well (Perkin Elmer), is added for 20 additional hours. Plates are frozen and then thawed, washed and filtered using a Brandel MLR-96 cell harvester and prewet filter mats (Wallac 1205-401, Perkin Elmer). Filters are dried at 60° C. for one hour (Precision 16EG convection oven) and placed into filter sample bags (Wallac 1205-411, Perkin Elmer) with 10 mL of scintillant (Wallac 1205-440, Perkin Elmer). Sealed filters are counted on a LKB Wallac 1205 Betaplate liquid scintillation counter. Data are collected via Gterm Betaplate program v1.1 (Wallac copyright 1989-1990) and transformed into percent inhibition, calculated using the following formula: […]
With `Cc1noc(NC(=O)N2CC[C@@H](C)[C@@H](N(C)c3ncnc4[nH]ccc34)C2)c1C#N` [Example 3, (3R,4R)-N-(4-cyano-3-methylisoxazol-5-yl)-4-methyl-3-[methyl(7H-pyrrolo[2,3-d]pyrimidin-4-yl)amino]piperidine-1-carboxamide], the IC50 was > 10000 nM.
Take `CSc1nc(NC(=O)N2CC[C@@H](C)[C@@H](N(C)c3ncnc4[nH]ccc34)C2)n(C)n1` [Example 4, (3R,4R)-4-methyl-N-[1-methyl-3-(methylsulfanyl)-1H-1,2,4-triazol-5-yl]-3-[methyl(7H-pyrrolo[2,3-d]pyrimidin-4-yl)amino]piperidine-1-carboxamide]: the IC50 was > 10000 nM.
Consider `C[C@@H]1CCN(C(=O)Nc2nncs2)C[C@@H]1N(C)c1ncnc2[nH]ccc12` [Example 1, (3R,4R)-4-methyl-3-[methyl(7H-pyrrolo[2,3-d]pyrimidin-4-yl)amino]-N-(1,3,4-thiadiazol-2-yl)piperidine-1-carboxamide], for which the IC50 was 28.5 nM.
For the molecule `COc1nsc(NC(=O)N2CC[C@@H](C)[C@@H](N(C)c3ncnc4[nH]ccc34)C2)n1` [Example 2, (3R,4R)-N-(3-methoxy-1,2,4-thiadiazol-5-yl)-4-methyl-3-[methyl(7H-pyrrolo[2,3-d]pyrimidin-4-yl)amino]piperidine-1-carboxamide], the IC50 worked out at 50 nM.
